From patent US6897316B2, “Substituted 2-phenyl-4-quinolone-3-carboxylic acid compounds and their use as antitumor agents” (China Medical University, priority 2003, dated 2005)
In brackets after ≈: the same amount, converted by molar mass.

Key:
Assay type in all cases: cell-based, human
[1] = tested on: ileocecal carcinoma (HCT-8) cell line; assay: Activity against HTCL replication, HCT-8; settings: mean ED50
Procedure: (§1) Compounds were assayed for in vitro cytotoxicity in a panel of human tumor cell lines at the School of Pharmacy, University of North Carolina at Chapel Hill, according to procedures described previously [Lee, K. H., Lin, Y. M., Wu, T. S., Zhang, D. C., Yamagishi, T., Hayashi, T., Hall, I. H., Chang, J. J., Wu, R. Y., Yang, T. H. The cytotoxic principles of Prunella vulgaris, Psychotria serpens, and Hyptis capitata: Ursolic acid and related derivatives. Planta Med. 1988, 54, 308-11; Boyd, M. R. Status of the National Cancer Institute preclinical antitumor drug discovery screen: implications for selection of new agents for clinical trial. Devita, V. T., Jr. Hellman, S., Rosenberg, S. A., Eds, J. B. Cancer: Principles and Practice of Oncology Update, 1989, 3: pp1-12, Lippincoft: Philadephia; Monks, A., Scudiero, D., Skehan, P., Shoemaker, R., Paull, K., Vistica, D., Hose, C., Langley, J., Cronise, P., Vaigro-Wolff, A., Gray-Goodrich, M., Campbell, H., Mayo, J., Boyd, M. Feasibility of a high-flux anticancer drug screen using a diverse panel of cultured human tumor cell lines. J. Natl. Cancer Inst. 1991, 83, 757-66.] […]

[2] = tested on: lung cancer cell line (A-549); assay: Preliminary cytotoxicity screening against lung cancer cell line A-549 (SRB assay); settings: Homo sapiens, A549; A-549; 50% reduction in absorbance at 562 nm relative to untreated cells, SRB assay; Table 1 (esters VII, acids IX); read-out: ED50 (cytotoxicity against A-549)
Procedure: Compounds were assayed for in vitro cytotoxicity in a panel of human tumor cell lines at the School of Pharmacy, University of North Carolina at Chapel Hill, according to procedures described previously [Lee, K. H., Lin, Y. M., Wu, T. S., Zhang, D. C., Yamagishi, T., Hayashi, T., Hall, I. H., Chang, J. J., Wu, R. Y., Yang, T. H. The cytotoxic principles of Prunella vulgaris, Psychotria serpens, and Hyptis capitata: Ursolic acid and related derivatives. Planta Med. 1988, 54, 308-11; Boyd, M. R. Status of the National Cancer Institute preclinical antitumor drug discovery screen: implications for selection of new agents for clinical trial. Devita, V. T., Jr. Hellman, S., Rosenberg, S. A., Eds, J. B. Cancer: Principles and Practice of Oncology Update, 1989, 3: pp1-12, Lippincoft: Philadephia; Monks, A., Scudiero, D., Skehan, P., Shoemaker, R., Paull, K., Vistica, D., Hose, C., Langley, J., Cronise, P., Vaigro-Wolff, A., Gray-Goodrich, M., Campbell, H., Mayo, J., Boyd, M. Feasibility of a high-flux anticancer drug screen using a diverse panel of cultured human tumor cell lines. J. Natl. Cancer Inst. 1991, 83, 757-66.] The cell lines included human ovarian cancer (1A9), ileocecal carcinoma (HCT-8), lung carcinoma (A-549), glioblastoma (U-87-MG), bone (HOS), epidermoid carcinoma of the […] (KB), P-gp-expressing epidermoid carcinoma of the nasopharynx (KB-VIN), and melanoma (SKMEL-2) cell line. The cytotoxic effects of each compound were obtained as EC50 values, which represent the molar drug concentrations required to cause 50% inhibition.
Preliminary screening of antitumor activity was based on the cytotoxicity tested in human long cancer (A-549) cell lines. […] Among 3-carboxylic acid derivatives (IX), the cytotoxicity was not remarkable when the m-position of 2-phenyl group was substituted by OCH3 group (IX-3, 7, 11). ED50 values were greater than 20 μg/mL. […] The antitumor activity was not good, if there was no substitution on the m-position of 2-phenyl group ([…]).

[3] = tested on: Vincristine-resistant epidermoid carcinoma of the nasopharynx (KB-VIN) cell line; assay: Activity against HTCL replication, KB-VIN; settings: mean ED50
Procedure: as §1

[4] = tested on: glioblastoma (U87-MG) cell line; assay: Activity against HTCL replication, U87-MG; settings: mean ED50
Procedure: as §1

bone (HOS) cell line = assay: Activity against HTCL replication, HOS; settings: mean ED50
Procedure: as §1

## COc1ccc2[nH]c(-c3cccc(F)c3)c(C(=O)O)c(=O)c2c1 [IX-8, 3′-Fluoro-6-methoxy-2-phenyl-4-quinolone-3-carboxylic acid]
[1]
  ED50 HCT-8: 0.14 µg/mL (≈ 0.447 µM)
[2]
  IC50: 0.19 µg/mL (≈ 0.606 µM)
[3]
  ED50 KB-VIN: 0.13 µg/mL (≈ 0.415 µM)
[4]
  ED50 U87-MG: 1.50 µg/mL (≈ 4.79 µM)
Bone (HOS) cell line
  ED50 HOS: 0.14 µg/mL (≈ 0.447 µM)
